The source of these data is patent US20220132846A1, “1-PYRIDYL-PYRAZOLYL AMIDE COMPOUNDS AND PREPARATION AND USES THEREOF” (HUNAN RESEARCH INSTITUTE OF CHEMICAL INDUSTRY CO., LTD., priority 2019, published 2022).

Experiment [1] relates to Armyworm (Mythimna separata (Walker)). The experiment in a line: Test against armyworm, Potter tower method. The experiment is classed as in vivo. To be noted: for mortality at 12.5 µg/mL / mortality at 50 µg/mL / mortality at 500 µg/mL: Mythimna separata, third-instar larvae, after 72 hours, read-out: Activity (mortality) level against armyworm; for mortality at 12.5 µg/mL: 12.5 mg/L; for mortality at 50 µg/mL: 50 mg/L; for mortality at 500 µg/mL: 500 mg/L. As to the method: Potter tower method: the test compound was dissolved in an appropriate solvent such as N,N-dimethylformamide, and then diluted with 0.2% aqueous solution of Tween 80 to the desired concentration, Those without the test compounds were set as blank controls. The fresh and tender corn leaves were taken and cut into fragments of basically the same size, then put into a Petri dish (diameter 90 mm) padded with filter paper in advance. Ten third-instar larvae of test insects were transferred into the dish and then placed under the Potter spray tower for being sprayed, each concentration treatment was sprayed at the amount of 1 mL and replicated 3 times. The dish was covered and then placed in a chamber for culture and observed regularly, after 72 hours, the dead insects was investigated and recorded and the mean mortality was calculated. […]

The test system of another experiment is Aphis fabae. The experiment can be described thus: Test against aphid, leaf dip method (Aphis fabae). The experiment is classed as in vivo. To be noted: foliar; for mortality at 12.5 µg/mL: 12.5 mg/L; for mortality at 12.5 µg/mL / mortality at 50 µg/mL / mortality at 200 µg/mL / mortality at 500 µg/mL: after 24 hours, read-out: Activity (mortality) level against Aphis fabae; for mortality at 50 µg/mL: 50 mg/L; for mortality at 200 µg/mL: 200 mg/L; for mortality at 500 µg/mL: 500 mg/L; for LC50: further test, read-out: LC50 against Aphis fabae. On the procedure: For evaluating the activity of the compounds of this invention against Homoptera pests, Aphis fabae, wheat aphids, etc. were selected as the test insects, and the activity of the compounds of this invention against aphids was measured by leaf dip method indoors.
Leaf dip method (Aphis fabae): the test compound was dissolved in an appropriate solvent such as N,N-dimethylformamide, and then diluted with 0.2% aqueous solution of Tween 80 to the desired concentration, Those without the test compounds were set as blank controls, the treatments were replicated 3 times. Horsebean seedlings with no less than twenty 3-day-old Aphis fabae per plant was cut from the stem, 5 horsebean seedlings with the insects were dipped in the test solution for 5 seconds, then inserted into a sponge filled with water after sucked dry using filter paper, then covered with a glass tube and placed in a chamber for culture. After 24 hours, the number of living and dead insects were investigated and the results were averaged. […]

For orientation: mortality means the percentage killed. Regarding `CNC(=O)c1cc(Cl)cc(Br)c1N(C)C(=O)c1cc(Br)nn1-c1ncccc1Cl` [Compound 25, N-[2-bromo-4-chloro-6-[(methylamino)carbonyl]phenyl]-N-methyl-1-(3-chloro-2-pyridinyl)-3-bromo-1H-pyrazole-5-carboxamide], in experiment [1], the mortality at 12.5 µg/mL was in the range of 90 to 100%, the mortality at 50 µg/mL lay in the range of 90 to 100% and the mortality at 500 µg/mL was in the range of 90 to 100%. In the experiment with Aphis fabae, the mortality at 12.5 µg/mL fell in the range of 90 to 100%, the mortality at 50 µg/mL lay in the range of 90 to 100%, the mortality at 200 µg/mL fell in the range of 90 to 100% and the mortality at 500 µg/mL lay in the range of 90 to 100%.
For `CCNC(=O)c1cc(Cl)cc(Br)c1N(C)C(=O)c1cc(Br)nn1-c1ncccc1Cl` [Compound 26, N-[2-bromo-4-chloro-6-[(ethylamino)carbonyl]phenyl]-N-methyl-1-(3-chloro-2-pyridinyl)-3-bromo-1H-pyrazole-5-carboxamide], in experiment [1], the mortality at 12.5 µg/mL fell in the range of 90 to 100%, the mortality at 50 µg/mL was 90 to 100% and the mortality at 500 µg/mL fell in the range of 90 to 100%. Besides, in the experiment on Aphis fabae, the mortality at 12.5 µg/mL is 90 to 100%, the mortality at 50 µg/mL lay within 90 to 100%, the mortality at 200 µg/mL lay within 90 to 100% and the mortality at 500 µg/mL lay in the range of 90 to 100%.
As to `CCCNC(=O)c1cc(Cl)cc(Br)c1N(C)C(=O)c1cc(Br)nn1-c1ncccc1Cl` [Compound 27, N-[2-bromo-4-chloro-6-[(propylamino)carbonyl]phenyl]-N-methyl-1-(3-chloro-2-pyridinyl)-3-bromo-1H-pyrazole-5-carboxamide], in experiment [1], the mortality at 50 µg/mL was 90 to 100% and the mortality at 500 µg/mL lay in the range of 90 to 100%. In the experiment with Aphis fabae, the mortality at 12.5 µg/mL is 90 to 100%, the mortality at 50 µg/mL was 90 to 100%, the mortality at 200 µg/mL lay in the range of 90 to 100% and the mortality at 500 µg/mL was in the range of 90 to 100%.
As for `CC(C)NC(=O)c1cc(Cl)cc(Br)c1N(C)C(=O)c1ccnn1-c1ncccc1Cl` [Compound 28, N-[2-bromo-4-chloro-6-[(isopropylamino)carbonyl]phenyl]-N-methyl-1-(3-chloro-2-pyridinyl)-1H-pyrazole-5-carboxamide], in experiment [1], the mortality at 12.5 µg/mL was 90 to 100%, the mortality at 50 µg/mL was in the range of 90 to 100% and the mortality at 500 µg/mL was 90 to 100%. In the experiment on Aphis fabae, the mortality at 200 µg/mL is 90 to 100% and the mortality at 500 µg/mL was 90 to 100%.
As for `CN(C(=O)c1cc(Br)nn1-c1ncccc1Cl)c1c(Br)cc(Cl)cc1C(=O)NC1CC1` [Compound 29, N-[2-bromo-4-chloro-6-[(cyclopropylamino)carbonyl]phenyl]-N-methyl-1-(3-chloro-2-pyridinyl)-3-bromo-1H-pyrazole-5-carboxamide], in experiment [1], the mortality at 12.5 µg/mL lay within 90 to 100%, the mortality at 50 µg/mL is 90 to 100% and the mortality at 500 µg/mL was 90 to 100%. Further, in the experiment on Aphis fabae, the mortality at 200 µg/mL was 90 to 100% and the mortality at 500 µg/mL was in the range of 90 to 100%.
In the case of `CCCCNC(=O)c1cc(Cl)cc(Br)c1N(C)C(=O)c1ccnn1-c1ncccc1Cl` [Compound 30, N-[2-bromo-4-chloro-6-[(butylamino)carbonyl]phenyl]-N-methyl-1-(3-chloro-2-pyridinyl)-1H-pyrazole-5-carboxamide], in experiment [1], the mortality at 500 µg/mL lay in the range of 90 to 100%. In the experiment on Aphis fabae, the mortality at 200 µg/mL fell in the range of 90 to 100% and the mortality at 500 µg/mL fell in the range of 90 to 100%.
Usually LC50 stands for the concentration lethal to half of the exposed cells or organisms. Take `CN(C)C(=O)c1cc(Cl)cc(Br)c1N(C)C(=O)c1cc(Br)nn1-c1ncccc1Cl` [Compound 31, N-[2-bromo-4-chloro-6-[(dimethylamino)carbonyl]phenyl]-N-methyl-1-(3-chloro-2-pyridinyl)-3-bromo-1H-pyrazole-5-carboxamide]: the mortality at 500 µg/mL in experiment [1] was in the range of 90 to 100%. In the experiment with Aphis fabae, the mortality at 12.5 µg/mL was in the range of 90 to 100%, the mortality at 50 µg/mL lay in the range of 90 to 100%, the mortality at 200 µg/mL is 90 to 100% and the mortality at 500 µg/mL is 90 to 100%. Further, the LC50 in the experiment with Aphis fabae is less than 1 µg/mL.
As for `CCCN(C)C(=O)c1cc(Cl)cc(Br)c1N(C)C(=O)c1cc(Br)nn1-c1ncccc1Cl` [Compound 33, N-[2-bromo-4-chloro-6-[(methyl(propyl)amino)carbonyl]phenyl]-N-methyl-1-(3-chloro-2-pyridinyl)-3-bromo-1H-pyrazole-5-carboxamide], in experiment [1], the mortality at 50 µg/mL was in the range of 90 to 100% and the mortality at 500 µg/mL lay within 90 to 100%. In the experiment on Aphis fabae, the mortality at 12.5 µg/mL was 90 to 100%, the mortality at 50 µg/mL lay within 90 to 100%, the mortality at 200 µg/mL fell in the range of 90 to 100% and the mortality at 500 µg/mL was 90 to 100%.
Turning to `CC(C)N(C)C(=O)c1cc(Cl)cc(Br)c1N(C)C(=O)c1cc(Br)nn1-c1ncccc1Cl` [Compound 34, N-[2-bromo-4-chloro-6-[(methyl(isopropyl)amino)carbonyl]phenyl]-N-methyl-1-(3-chloro-2-pyridinyl)-3-bromo-1H-pyrazole-5-carboxamide], in experiment [1], the mortality at 50 µg/mL is 90 to 100% and the mortality at 500 µg/mL was in the range of 90 to 100%. Besides, in the experiment with Aphis fabae, the mortality at 12.5 µg/mL lay within 90 to 100%, the mortality at 50 µg/mL was in the range of 90 to 100%, the mortality at 200 µg/mL lay within 90 to 100% and the mortality at 500 µg/mL fell in the range of 90 to 100%. In addition, the LC50 with Aphis fabae was less than 1 µg/mL.
Regarding `CN(C(=O)c1cc(Br)nn1-c1ncccc1Cl)c1c(Br)cc(Cl)cc1C(=O)N(C)C1CC1` [Compound 35, N-[2-bromo-4-chloro-6-[(methyl(cyclopropyl)amino)carbonyl]phenyl]-N-methyl-1-(3-chloro-2-pyridinyl)-3-bromo-1H-pyrazole-5-carboxamide], in experiment [1], the mortality at 50 µg/mL was in the range of 90 to 100% and the mortality at 500 µg/mL is 90 to 100%. In the experiment with Aphis fabae, the mortality at 12.5 µg/mL was in the range of 90 to 100%, the mortality at 50 µg/mL is 90 to 100%, the mortality at 200 µg/mL fell in the range of 90 to 100% and the mortality at 500 µg/mL is 90 to 100%.
As to `CN(C(=O)c1cc(Br)nn1-c1ncccc1Cl)c1c(Br)cc(Cl)cc1C(=O)N(C)C(C)(C)C` [Compound 36, N-[2-bromo-4-chloro-6-[(methyl(tert-butyl)amino)carbonyl]phenyl]-N-methyl-1-(3-chloro-2-pyridinyl)-3-bromo-1H-pyrazole-5-carboxamide], in experiment [1], the mortality at 50 µg/mL is 90 to 100% and the mortality at 500 µg/mL is 90 to 100%. In the experiment with Aphis fabae, the mortality at 50 µg/mL lay in the range of 90 to 100%, the mortality at 200 µg/mL was in the range of 90 to 100% and the mortality at 500 µg/mL lay in the range of 90 to 100%.
Regarding `CCN(CC)C(=O)c1cc(Cl)cc(Br)c1N(C)C(=O)c1cc(Br)nn1-c1ncccc1Cl` [Compound 37, N-[2-bromo-4-chloro-6-[(diethylamino)carbonyl]phenyl]-N-methyl-1-(3-chloro-2-pyridinyl)-3-bromo-1H-pyrazole-5-carboxamide], in experiment [1], the mortality at 12.5 µg/mL was 90 to 100%, the mortality at 50 µg/mL was 90 to 100% and the mortality at 500 µg/mL is 90 to 100%. For the same compound, in the experiment on Aphis fabae, the mortality at 12.5 µg/mL was 90 to 100%, the mortality at 50 µg/mL lay within 90 to 100%, the mortality at 200 µg/mL was 90 to 100% and the mortality at 500 µg/mL lay in the range of 90 to 100%.
Consider `CCN(C(=O)c1cc(Br)nn1-c1ncccc1Cl)c1c(Br)cc(Cl)cc1C(=O)N(C)C` [Compound 38, N-[2-bromo-4-chloro-6-[(dimethylamino)carbonyl]phenyl]-N-ethyl-1-(3-chloro-2-pyridinyl)-3-bromo-1H-pyrazole-5-carboxamide], for which, in experiment [1], the mortality at 50 µg/mL is 90 to 100% and the mortality at 500 µg/mL lay within 90 to 100%. Also, in the experiment with Aphis fabae, the mortality at 12.5 µg/mL fell in the range of 90 to 100%, the mortality at 50 µg/mL was 90 to 100%, the mortality at 200 µg/mL was 90 to 100% and the mortality at 500 µg/mL was in the range of 90 to 100%.
For the compound `CCN(C)C(=O)c1cc(Cl)cc(Br)c1N(CC)C(=O)c1cc(Br)nn1-c1ncccc1Cl` [Compound 39, N-[2-bromo-4-chloro-6-[(methyl(ethyl)amino)carbonyl]phenyl]-N-ethyl-1-(3-chloro-2-pyridinyl)-3-bromo-1H-pyrazole-5-carboxamide], in experiment [1], the mortality at 50 µg/mL fell in the range of 90 to 100% and the mortality at 500 µg/mL fell in the range of 90 to 100%. Moreover, in the experiment on Aphis fabae, the mortality at 12.5 µg/mL lay within 90 to 100%, the mortality at 50 µg/mL fell in the range of 90 to 100%, the mortality at 200 µg/mL lay in the range of 90 to 100% and the mortality at 500 µg/mL was 90 to 100%.
As for `CCN(CC)C(=O)c1cc(Cl)cc(Br)c1N(CC)C(=O)c1cc(Br)nn1-c1ncccc1Cl` [Compound 40, N-[2-bromo-4-chloro-6-[(diethylamino)carbonyl]phenyl]-N-ethyl-1-(3-chloro-2-pyridinyl)-3-bromo-1H-pyrazole-5-carboxamide], in experiment [1], the mortality at 12.5 µg/mL was 90 to 100%, the mortality at 50 µg/mL was in the range of 90 to 100% and the mortality at 500 µg/mL was 90 to 100%. Also, the “Activity against armyworm, further screening (in words)” value in experiment [1] (compared with chlorantraniliprole (D1)) was “excellent activity”. For the same compound, in the experiment with Aphis fabae, the mortality at 12.5 µg/mL was 90 to 100%, the mortality at 50 µg/mL is 90 to 100%, the mortality at 200 µg/mL is 90 to 100% and the mortality at 500 µg/mL lay within 90 to 100%.
